For data set [1], the system named is Bibionidae. As to conditions: chronic/long-term; duration: 28 days.
The subject of data set [2] is Bird. The following applies: for LD50: acute, oral, unspecified, mortality.
Data set [3] concerns Daphnia magna. The following applies: chronic/long-term; duration: 21 days; reproduction.
Data set [4] relates to Lepomis macrochirus. As to conditions: acute; duration: 96 hours; mortality.
Data set [5] has as its system Oncorhynchus mykiss. As to conditions: chronic/long-term; duration: 28 days; growth.
Data set [6] has as its system Aphidius rhopalosiphi. The following applies: not reported.
Data set [7] deals with Apis mellifera. As to conditions: acute; duration: 48 hours; oral; unspecified; mortality.
The subject of data set [8] is Canidae. As to conditions: chronic; duration: 1 years; oral; Dog Other.
The subject of data set [9] is Oryctolagus sp. The following applies: reproduction developmental; mortality.
Data set [10] has as its system Rattus norvegicus.
Data set [11] has as its system Tagia sp.

Experimental findings from EPA's ToxValDB 9.5 (doi:10.2903/j.efsa.2006.87r) are described below.

≈ marks a conversion by molar mass, not a printed value.

`COC(=O)[C@@H](C)Oc1ccc(Oc2ncc(C(F)(F)F)cc2Cl)cc1` [Haloxyfop-P-methyl]: the NOEC stood at 2.5 mg/L in data set [1], 0.509 mg/L in [3] and 0.0052 mg/L in [5]. The compound further registered an LD50 in data set [2] of 1160 mg/kg-day. In data set [4], the LC50 stood at 0.0884 µg/mL (≈ 0.235 µM).

Regarding `C[C@@H](Oc1ccc(Oc2ncc(C(F)(F)F)cc2Cl)cc1)C(=O)O` [Haloxyfop-P], the LC50 (acute, oral, diet, mortality) was more than 1110 mg/kg-day and the LC50 in data set [11] (acute, duration: 14 days, mortality) was 830 mg/kg. Also, the NOAEL (chronic/long-term) is 1 mg/kg-day; the NOAEL in data set [8] came to 0.5 mg/kg-day; the NOAEL in data set [9] is 7.5 mg/kg-day; the NOAEL in [10] (chronic, duration: 2 years, organ weight) was 0.065 mg/kg-day; the NOAEL in data set [10] (reproduction developmental, body weight) was found to be 0.065 mg/kg-day. In addition, the LEL in data set [6] (mortality) was 108 g/ha; in [6] (reproduction), 5.7 g/ha. Besides, the LD50 in data set [7] was more than 100 µg/piece; in data set [2] it was 414 mg/kg; in [10] (acute, oral, mortality), not below 300 mg/kg. Moreover, the NOEC in data set [2] (reproductive) is 17.1 mg/kg-day; in data set [11] (chronic/long-term, reproduction), 810 g/ha.
